According to patent US7759337B2, “Phthalazine compounds and methods of use” (Amgen Inc., priority 2005, dated 2010):

Each compound was assayed on production of TNF by monocytes activated with bacterial lipopolysaccharide (LPS) (assay: Lipopolysaccharide-activated monocyte TNF production assay). Settings: Homo sapiens; whole blood monocyte assay (LPS induced TNF release).
Format: cell-based
Outline: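 Adherent human PBMC-derived monocytes preincubated 60 min with nine two-fold compound dilutions, then stimulated with E. coli K532 LPS (30 ng/mL in the added medium) for 4 h at 37 °C. Supernatant TNF measured by sandwich ELISA; IC50 is the compound concentration halving TNF production, from second-order polynomial fits.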

| Compound | IC50 [µM] |
| --- | --- |
| COc1nc(N(C)C)ncc1-c1nncc2cc(-c3cc(C(=O)NC4CC4)ccc3C)ccc12 [Example 197, N-cyclopropyl-3-{1-[2-(dimethylamino)-4-methoxypyrimidin-5-yl]phthalazin-6-yl}-4-methylbenzamide] | ≤ 5 |
| COc1cccc(-c2nncc3cc(-c4cc(C(N)=O)ccc4C)ccc23)c1OC [Example 198, 3-[1-(2,3-dimethoxyphenyl)phthalazin-6-yl]-4-methylbenzamide] | ≤ 5 |
| Cc1ccc(C(N)=O)cc1-c1ccc2c(-c3ccc(C(F)(F)F)cc3Cl)nncc2c1 [Example 199, 3-{1-[2-chloro-4-(trifluoromethyl)phenyl]phthalazin-6-yl}-4-methylbenzamide] | ≤ 5 |
| COc1c(C)cccc1-c1nncc2cc(-c3cc(C(=O)NC4CC4)ccc3C)ccc12 [Example 201, N-cyclopropyl-3-[1-(2-methoxy-3-methylphenyl)phthalazin-6-yl]-4-methylbenzamide] | ≤ 5 |
| COc1ccc(-c2nncc3cc(-c4cc(C(N)=O)ccc4C)ccc23)c(C)c1 [Example 202, 3-[1-(4-methoxy-2-methylphenyl)phthalazin-6-yl]-4-methylbenzamide] | ≤ 5 |
| Cc1ccc(C(N)=O)cc1-c1ccc2c(-c3ccc(CN4CCOCC4)cc3)nncc2c1 [Example 203, 4-methyl-3-{1-[4-(morpholin-4-ylmethyl)phenyl]phthalazin-6-yl}benzamide] | ≤ 5 |
| COc1c(C)cccc1-c1nncc2cc(-c3cc(C(N)=O)ccc3C)ccc12 [Example 204, 3-[1-(2-methoxy-3-methylphenyl)phthalazin-6-yl]-4-methylbenzamide] | ≤ 5 |
| Cc1ccc(C(=O)NC2CC2)cc1-c1ccc2c(-c3ccc(C(C)(C)C(=O)O)cc3)nncc2c1 [Example 205, 2-[4-(6-{5-[(cyclopropylamino)carbonyl]-2-methylphenyl}phthalazin-1-yl)phenyl]-2-methylpropanoic acid] | ≤ 5 |
| CNc1ccc(-c2nncc3cc(-c4cc(C(=O)NC5CC5)ccc4C)ccc23)c(OC)n1 [Example 206, N-cyclopropyl-3-{1-[2-methoxy-6-(methylamino)pyridin-3-yl]phthalazin-6-yl}-4-methylbenzamide] | ≤ 5 |
| COc1ccc(-c2nncc3cc(-c4cc(C(=O)NC5CC5)ccc4C)ccc23)c(C)n1 [Example 207, N-cyclopropyl-3-[1-(6-methoxy-2-methylpyridin-3-yl)phthalazin-6-yl]-4-methylbenzamide] | ≤ 5 |
| Cc1ccc(C(=O)NC2CC2)cc1-c1ccc2c(-c3ccc(-c4ccc(Cl)cc4)cc3)nncc2c1 [Example 208, 3-[1-(4′-chloro-1,1′-biphenyl-4-yl)phthalazin-6-yl]-N-cyclopropyl-4-methylbenzamide] | ≤ 5 |
| Cc1ccc(C(=O)NC2CC2)cc1-c1ccc2c(-c3ccc(Cl)cc3)nncc2c1 [Example 209, 3-[1-(4-chlorophenyl)phthalazin-6-yl]-N-cyclopropyl-4-methylbenzamide] | ≤ 5 |
| Cc1ccc(C(=O)NC2CC2)cc1-c1ccc2c(-c3ccc(Cl)cc3C(F)(F)F)nncc2c1 [Example 210, 3-{1-[4-chloro-2-(trifluoromethyl)phenyl]phthalazin-6-yl}-N-cyclopropyl-4-methylbenzamide] | ≤ 5 |
| Cc1ccc(-c2nncc3cc(-c4cc(C(N)=O)ccc4C)ccc23)c(Cl)n1 [Example 211, 3-[1-(2-chloro-6-methylpyridin-3-yl)phthalazin-6-yl]-4-methylbenzamide] | ≤ 5 |
| Cc1ccc(-c2nncc3cc(-c4cc(C(=O)NC5CC5)ccc4C)ccc23)c(Cl)n1 [Example 212, 3-[1-(2-chloro-6-methylpyridin-3-yl)phthalazin-6-yl]-N-cyclopropyl-4-methylbenzamide] | ≤ 5 |
| COc1cc(F)ccc1-c1nncc2cc(-c3cc(C(N)=O)ccc3C)ccc12 [Example 213, 3-[1-(4-fluoro-2-methoxyphenyl)phthalazin-6-yl]-4-methylbenzamide] | ≤ 5 |

| Compound | IC50 [µM] |
| --- | --- |
| Cc1ccc(C(N)=O)cc1-c1ccc2c(-c3ccc(S(C)(=O)=O)cc3)nncc2c1 [Example 214, 4-methyl-3-{1-[4-(methylsulfonyl)phenyl]phthalazin-6-yl}benzamide] | ≤ 5 |
| Cc1ccc(C(N)=O)cc1-c1ccc2c(-c3cncnc3)nncc2c1 [Example 215, 4-methyl-3-(1-pyrimidin-5-ylphthalazin-6-yl)benzamide] | ≤ 5 |
| Cc1ccc(C(N)=O)cc1-c1ccc2c(-c3cc4ccccc4[nH]3)nncc2c1 [Example 216, 3-[1-(1H-indol-2-yl)phthalazin-6-yl]-4-methylbenzamide] | ≤ 5 |
| Cc1ccc(C(N)=O)cc1-c1ccc2c(-c3ccc(F)cc3C)nncc2c1 [Example 217, 3-[1-(4-fluoro-2-methylphenyl)phthalazin-6-yl]-4-methylbenzamide] | ≤ 5 |
| Cc1ccc(C(=O)NC2CC2)cc1-c1ccc2c(-c3ccc(S(N)(=O)=O)cc3C)nncc2c1 [Example 218, 3-{1-[4-(aminosulfonyl)-2-methylphenyl]phthalazin-6-yl}-N-cyclopropyl-4-methylbenzamide] | ≤ 5 |
| Cc1ccc(C(=O)NC2CC2)cc1-c1ccc2c(-c3ccc(C(F)(F)F)cc3Cl)nncc2c1 [Example 219, 3-{1-[2-chloro-4-(trifluoromethyl)phenyl]phthalazin-6-yl}-N-cyclopropyl-4-methylbenzamide] | ≤ 5 |
| Cc1ccc(C(N)=O)cc1-c1ccc2c(-c3ccccc3C(F)(F)F)nncc2c1 [Example 220, 4-methyl-3-{1-[2-(trifluoromethyl)phenyl]phthalazin-6-yl}benzamide] | ≤ 5 |
| Cc1ccc(-c2nncc3cc(-c4cc(C(N)=O)ccc4C)ccc23)c(Cl)c1 [Example 221, 3-[1-(2-chloro-4-methylphenyl)phthalazin-6-yl]-4-methylbenzamide] | ≤ 5 |
| Cc1ccc(C(N)=O)cc1-c1ccc2c(-c3ccc(F)cc3Cl)nncc2c1 [Example 222, 3-[1-(2-chloro-4-fluorophenyl)phthalazin-6-yl]-4-methylbenzamide] | ≤ 5 |
| Cc1ccc(C(N)=O)cc1-c1ccc2c(-c3ccc(Cl)cc3Cl)nncc2c1 [Example 223, 3-[1-(2,4-dichlorophenyl)phthalazin-6-yl]-4-methylbenzamide] | ≤ 5 |
| COc1cc(Cl)ccc1-c1nncc2cc(-c3cc(C(=O)NC4CC4)ccc3C)ccc12 [Example 224, 3-[1-(4-chloro-2-methoxyphenyl)phthalazin-6-yl]-N-cyclopropyl-4-methylbenzamide] | ≤ 5 |
| COc1ncc(-c2nncc3cc(-c4cc(C(N)=O)ccc4C)ccc23)c(OC)n1 [Example 225, 3-[1-(2,4-dimethoxypyrimidin-5-yl)phthalazin-6-yl]-4-methylbenzamide] | ≤ 5 |
| COc1ccc(-c2nncc3cc(-c4cc(C(N)=O)ccc4C)ccc23)c(OC)c1 [Example 226, 3-[1-(2,4-dimethoxyphenyl)phthalazin-6-yl]-4-methylbenzamide] | ≤ 5 |
| Cc1ccc(C(N)=O)cc1-c1ccc2c(-c3ccc(OC(C)C)cc3C)nncc2c1 [Example 227, 3-[1-(4-isopropoxy-2-methylphenyl)phthalazin-6-yl]-4-methylbenzamide] | ≤ 5 |
| COc1ncccc1-c1nncc2cc(-c3cc(C(N)=O)ccc3C)ccc12 [Example 228, 3-[1-(2-methoxypyridin-3-yl)phthalazin-6-yl]-4-methylbenzamide] | ≤ 5 |
